Source: patent US9492405B2, “Use of fenoterol and fenoterol analogues in the treatment of glioblastomas and astrocytomas” (The United States of America, as represented by the …, priority 2010, dated 2016)
Several values for one entry are separate records, joined by “and”; a condition that tells them apart may be missing. Equal values may be shown once.

What was measured:
rat cardiomyocyte = assay: Rat cardiomyocyte contractility model; type: cell-based
1321N1 cells [1] = assay: Inhibition of mitogenesis, [3H]-thymidine incorporation in 1321N1 cells; type: cell-based, human
in vivo = details: rat; for AUC / Vd / clearance / half-life / concentration at 5 min / concentration at 15 min / concentration at 30 min / concentration at 60 min / concentration at 120 min / concentration at 240 min / concentration at 300 min / concentration at 360 min: male, Sprague-Dawley, plasma, iv, 5 mg/kg; for K12 / K21 / Plasma concentration, Average / Individual plasma concentration / V1 / K10 / V2 / Alpha / Beta / A / B / concentration at 5 min / concentration at 15 min / concentration at 30 min / concentration at 60 min / concentration at 120 min / concentration at 240 min / concentration at 300 min / concentration at 360 min: IV 5 mg/kg; for V1: central compartment; for K10: elimination rate; for V2: tissue compartment; for Alpha / Beta / A: two-compartment open model; for A: zero time intercept alpha phase; for B: zero time intercept beta phase
Description: Dose calculations (mg/kg) were based on the individual body weight measured on the day of treatment. Study duration for pharmacokinetic studies was 6 hours. […] Urine was collected for 0-6 hours and 6 to 24 hours from 3 rats in each treatment group.
In the two-compartment model, the drug distributes into two compartments, the central compartment and the tissue, or peripheral compartment. The central compartment represents the blood, extracellular fluid, and highly perfused tissues. The drug distributes rapidly and uniformly in the central compartment. A second compartment, known as the tissue or peripheral compartment, contains tissues in which the drug equilibrates more slowly. Drug transfer between the two compartments is assumed to take place by first-order processes.
The following abbreviations are utilized in Table 4 below: alpha—macro rate constant associated with the distribution phase; beta—macro rate constant associated with the elimination phase; A, B—zero time intercept associated with the alpha phase and beta phase, respectively; AUC—area under the curve; T1/2 (K10)—half-life associated with the rate constant K10; K10—elimination rate—rate at which the drug leaves the system from the central compartment; K12—rate at which drug enters tissue compartment from the central compartment; K21—rate at which drug enters central compartment from tissue compartment; V1—volume of distribution of the central compartment; V2—volume of distribution of the tissue compartment; Vss—volume of distribution at steady state; and Cl—clearance.

1321N1 cells [2] = assay: Cell cycle distribution by flow cytometry in 1321N1 cells; details: for % Phase Distribution G1 / % Phase Distribution G2 / % Phase Distribution S: 20 hours, 1321N1
β2-AR = β2-AR (Homo sapiens (Human), UniProt P07550); assay: β2-AR mediated cAMP accumulation in HEK-β2-AR cells; type: cell-based; details: read-out: Stimulation of cAMP Accumulation HEK-β2-AR EC50cAMP
Description: HEK-β2-AR, 1321N1 or U87MG cells were plated in 96-well plates. When the cells reached confluence, the medium was removed and each well rinsed with 0.1 mL of Krebs-HEPES buffer (130 mM NaCl, 4.8 mM KCl, 1.2 mM KH2PO4, 1.3 mM CaCl2, 1.2 mM MgSO4, 25 mM HEPES, and 10 mM glucose, pH 7.3). The plates were preincubated for 10 minutes at room temperature with buffer alone; then test compound diluted in buffer was added to the wells for quadruplicate determinations. The plates were incubated for an additional 10 minutes with the test compound. After incubation, the medium was removed and 0.1 mL of 0.5 M formic acid was added. After a minimum of 1 hour, the supernatant was removed and lyophilized. cAMP was quantitated using the protein kinase binding assay of Gilman.

[3] = Brain-to-plasma distribution of [3H]-(R,R)-methoxyfenoterol after single IV dose; type: in vivo; details: rat, IV 5 mg/kg; for Brain level, Mean / Percent of Dose in Brain, Mean / Plasma level, Mean: n=3
Description: An overview of the research study design for evaluating the brain-to-plasma distribution of [^3H]
(specific activity 57 Ci/mmol); vehicle was sterile saline, 0.9% sodium chloride, USP. Dose formulations were prepared on the day of the study. The amount of radioactivity in the dose formulation was determined by liquid scintillation. The study lasted for an hour and radioactivity levels in plasma and brain tissue were evaluated at the conclusion of the study. Approximately 5 mls of whole blood was collected. Blood samples were collected via cardiac puncture, transferred into a tube containing K3EDTA as the anticoagulant and kept on wet ice until processed to plasma. To generate plasma, samples were centrifuged within 15 minutes of collection at 2,500 RPM for 15 minutes at room temperature. Plasma was divided equally into three labeled cryovials and stored on ample dry ice until transferred to a freezer set at ≦−20° C. for storage until analysis. Duplicate aliquots were weighed and then combined with scintillation cocktail. The [^3H] radioactivity was determined on a liquid scintillation counter. Brain samples were snap frozen in liquid nitrogen and stored at ≦−70° C. until analysis. Whole brain tissue was homogenized and the weight of the homogenate was determined. Duplicate aliquots from the homogenate were weighed, solubilized and then combined with scintillation cocktail. The [^3H] radioactivity was determined on a liquid scintillation counter.

## CCC(Cc1ccc(OC)cc1)NCC(O)c1cc(O)cc(O)c1 (stereo not shown) [4-methoxy-ethylfenoterol]
Rat cardiomyocyte
  EC50: > 10 µM

## COc1ccc(C[C@@H](C)N(C[C@H](O)c2cc(O)cc(O)c2)C(C)C)cc1 [4-methoxy-isopropylfenoterol]
1321N1 cells [1]; [3H]-thymidine incorporation, 1321N1 cells, mean ± SD, n=4
  IC50: 0.946 µM
Rat cardiomyocyte
  EC50: > 10 µM

## C[C@H](Cc1ccc(O)cc1)NC[C@H](O)c1cc(O)cc(O)c1 [(R,R)-1, (R,R)-(−)-Fenoterol]
1321N1 cells [1]; inhibition of [3H]thymidine incorporation, FIG. 7A
  times more potent than (S,S)-fenoterol and forskolin: 1000 times
In vivo
  AUC: 495 ng·h/mL
  Vd: 1.91 L
  clearance: 51.5 mL/min
  half-life: 12.2 min
  K12: 0.0119 min⁻¹
  K21: 0.0107 min⁻¹
  V1: 906.5 mL
  K10: 0.0568 min⁻¹
  V2: 1005.20 mL
  Alpha: 0.0710 min⁻¹
  Beta: 0.0086 min⁻¹
  A: 1.6300 µg/mL
  B: 0.0577 µg/mL
In vivo; 5 min
  Plasma concentration, Average: 1340 ng/mL
In vivo; 5 min, individual rats
  Individual plasma concentration: 1.34 µg/mL
In vivo; 15 min
  Plasma concentration, Average: 360 ng/mL
In vivo; 15 min, individual rats
  Individual plasma concentration: 0.36 µg/mL
In vivo; 30 min
  Plasma concentration, Average: 340 ng/mL
In vivo; 30 min, individual rats
  Individual plasma concentration: 0.17 µg/mL and 0.50 µg/mL
In vivo; 60 min
  Plasma concentration, Average: 50 ng/mL
In vivo; 60 min, individual rats
  Individual plasma concentration: 0.05 µg/mL
In vivo; 120 min
  Plasma concentration, Average: 20 ng/mL
In vivo; 120 min, individual rats
  Individual plasma concentration: 0.03 µg/mL and 0.01 µg/mL
In vivo; 240 min
  Plasma concentration, Average: 10 ng/mL
In vivo; 300 min
  Plasma concentration, Average: 5 ng/mL
In vivo; 300 min, individual rats
  Individual plasma concentration: 0.005 µg/mL
In vivo; 360 min
  Plasma concentration, Average: 60 ng/mL
In vivo; 360 min, individual rats
  Individual plasma concentration: 0.08 µg/mL and 0.03 µg/mL
1321N1 cells [2]; 0.1 nM
  % Phase Distribution G1: 60.6%
  % Phase Distribution G2: 1.8%
  % Phase Distribution S: 37.6%
1321N1 cells [2]; 10.0 nM
  % Phase Distribution G1: 76.0%
  % Phase Distribution G2: 2.1%
  % Phase Distribution S: 21.9%
1321N1 cells [2]; 1000 nM
  % Phase Distribution G1: 74.7%
  % Phase Distribution G2: 0.7%
  % Phase Distribution S: 24.6%
1321N1 cells [2]; 1321N1, doses as low as
  dose arresting the cell cycle: ≤ 0.1 nM
1321N1 cells [2]; all tested concentrations, controls […]
  proportion of cells in G1 phase in treated cells: 60.6-76%

## CC[C@H](Cc1ccc(O)cc1)NC[C@H](O)c1cc(O)cc(O)c1 [(R,R)-ethylfenoterol, (R,R)-(−)-ethylfenoterol]
β2-AR
  EC50: 0.0028 µM

## C[C@@H](Cc1cccc2ccccc12)NC[C@H](O)c1cc(O)cc(O)c1.O=C(O)/C=C/C(=O)O [(R,S)-5, (R,S)-(−)-5-{1-hydroxy-2-[1-methyl-2-(1-naphthyl)ethylamino]ethyl}-1,3-benzenediol fumarate]
In vivo
  AUC: 1950 ng·h/mL
  Vd: 2.2 L
  clearance: 12.7 mL/min
  half-life: 18.1 min
  K12: 0.1213 min⁻¹
  K21: 0.0214 min⁻¹
  V1: 330.83 mL
  K10: 0.0383 min⁻¹
  V2: 1872.92 mL
  Alpha: 0.1764 min⁻¹
  Beta: 0.0046 min⁻¹
  A: 4.0365 µg/mL
  B: 0.4372 µg/mL
In vivo; Individual plasma concentration, 5 min, individual rats
  concentration at 5 min: 2520 ng/mL
In vivo; Individual plasma concentration, 15 min, individual rats
  concentration at 15 min: 850 ng/mL
In vivo; Individual plasma concentration, 30 min, individual rats
  concentration at 30 min: 490 ng/mL
In vivo; Individual plasma concentration, 60 min, individual rats
  concentration at 60 min: 360 ng/mL
In vivo; Individual plasma concentration, 120 min, individual rats
  concentration at 120 min: 250 ng/mL
In vivo; Individual plasma concentration, 240 min, individual rats
  concentration at 240 min: 110 ng/mL
In vivo; Individual plasma concentration, 300 min, individual rats
  concentration at 300 min: 100 ng/mL
In vivo; Individual plasma concentration, 360 min, individual rats
  concentration at 360 min: 80 ng/mL
In vivo; Plasma concentration, Average, 5 min
  concentration at 5 min: 2110 ng/mL
In vivo; Plasma concentration, Average, 15 min
  concentration at 15 min: 680 ng/mL
In vivo; Plasma concentration, Average, 30 min
  concentration at 30 min: 430 ng/mL
In vivo; Plasma concentration, Average, 60 min
  concentration at 60 min: 340 ng/mL
In vivo; Plasma concentration, Average, 120 min
  concentration at 120 min: 240 ng/mL
In vivo; Plasma concentration, Average, 240 min
  concentration at 240 min: 120 ng/mL
In vivo; Plasma concentration, Average, 300 min
  concentration at 300 min: 110 ng/mL
In vivo; Plasma concentration, Average, 360 min
  concentration at 360 min: 90 ng/mL
In vivo; 240 min, individual rats, listed as (R,S)-naphthylfenoterol, fumarate
  Individual plasma concentration: 0.11 ug/ml (2×) and 0.13 ug/ml (2×)
In vivo; 300 min, individual rats, listed as (R,S)-naphthylfenoterol, fumarate
  Individual plasma concentration: 0.11 µg/mL

## CC[C@@H](Cc1ccc(O)cc1)NC[C@H](O)c1cc(O)cc(O)c1 [(R,S)-ethylfenoterol, (R,S)-(−)-ethylfenoterol]
β2-AR
  EC50: 0.0166 µM

## Cc1ccc(OCC(O)C(C)NC(C)C)c2c1CCC2 (stereo not shown) [ICI 118-551, reference compound]
1321N1 cells [1]; competitive inhibition of (R,R)-fenoterol effect on [3H]-thymidine incorporation, 1321N1
  pA2: 8.9

## COc1ccc(C[C@@H](C)NC[C@H](O)c2cc(O)cc(O)c2)cc1.Cl [[^3H]-(R,R)-methoxyfenoterol]
[3]
  decrease of plasma levels from 5 to 60 minutes: 62%
[3]; 5 min
  Brain level, Individual: 1.00 μg-equiv/g and 0.80 μg-equiv/g and 0.95 μg-equiv/g
  Percent of Dose in Brain, Individual: 0.15% (2×) and 0.12%
  Plasma level, Individual: 3.30 μg-equiv/ml and 3.08 μg-equiv/ml and 3.37 μg-equiv/ml
  Brain level, Mean: 0.92±0.10 μg-equiv/g and 0.92 μg-equiv/g
  Percent of Dose in Brain, Mean: 0.14%
  Plasma level, Mean: 3.25±0.15 μg-equiv/ml and 3.25 μg-equiv/ml
[3]; 15 min
  Brain level, Individual: 0.36 μg-equiv/g and 1.06 μg-equiv/g and 0.99 μg-equiv/g
  Percent of Dose in Brain, Individual: 0.06% and 0.16% and 0.15%
  Plasma level, Individual: 0.89 μg-equiv/ml and 2.29 μg-equiv/ml and 2.19 μg-equiv/ml
  Brain level, Mean: 0.80 μg-equiv/g
  Percent of Dose in Brain, Mean: 0.12%
  Plasma level, Mean: 1.79 μg-equiv/ml
[3]; 30 min
  Brain level, Individual: 0.22 μg-equiv/g and 1.00 μg-equiv/g and 0.95 μg-equiv/g
  Percent of Dose in Brain, Individual: 0.03% and 0.15% (2×)
  Plasma level, Individual: 0.63 μg-equiv/ml and 1.97 μg-equiv/ml and 2.00 μg-equiv/ml
  Brain level, Mean: 0.72 μg-equiv/g
  Percent of Dose in Brain, Mean: 0.11%
  Plasma level, Mean: 1.53 μg-equiv/ml
[3]; 60 min
  Brain level, Individual: 0.44 μg-equiv/g and 0.53 μg-equiv/g and 1.12 μg-equiv/g
  Percent of Dose in Brain, Individual: 0.06% and 0.09% and 0.17%
  Plasma level, Individual: 0.97 μg-equiv/ml and 1.01 μg-equiv/ml and 1.73 μg-equiv/ml
  Brain level, Mean: 0.70±0.37 μg-equiv/g and 0.70 μg-equiv/g
  Percent of Dose in Brain, Mean: 0.11%
  Plasma level, Mean: 1.24±0.43 μg-equiv/ml and 1.24 μg-equiv/ml
[3]; no more than
  percent dose found in the brain, any given animal: no more than 0.17%
